Results taken from patent US20230183193A1, “4-DIFLUOROMETHYL BENZOYL AMIDES WITH HERBICIDAL ACTION” (BAYER CROPSCIENCE AKTIENGESELLSCHAFT, priority 2017, published 2023).

Experiments:
Format in all cases: in vivo
Abutilon theophrasti [1] = assay: Pre-emergence herbicidal action, ABUTH; details: dosage 320 g/ha, scored visually after 3 weeks vs untreated controls
Summary of the method: (§1)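 Percent herbicidal activity rated by eye 3 weeks after pre-emergence soil-surface application, compared with untreated pots. Seeds sat under sandy loam; sprays carried 0.2% wetting agent.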

Alopecurus myosuroides [2] = assay: Post-emergence herbicidal action, ALOMY; details: 80 g/ha, Table C
Summary of the method: (§2)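 Visual percent activity relative to untreated controls, assessed about 3 weeks after foliar treatment, where 0% equals control growth and 100% equals death. Compounds, as wettable powders or emulsion concentrates, are sprayed onto one-leaf-stage plants in sandy loam.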

Avena fatua [3] = assay: Post-emergence herbicidal action, AVEFA; details: 80 g/ha, Table C
Summary of the method: as §2

Stellaria media [4] = assay: Pre-emergence herbicidal action, STEME; details: dosage 320 g/ha, scored visually after 3 weeks vs untreated controls
Summary of the method: as §1

Viola tricolor [5] = assay: Pre-emergence herbicidal action, VIOTR; details: dosage 320 g/ha, scored visually after 3 weeks vs untreated controls
Summary of the method: as §1

Abutilon theophrasti [6] = assay: Post-emergence herbicidal action, ABUTH; details: 80 g/ha, Table D
Summary of the method: as §2

Pharbitis purpureum = assay: Post-emergence herbicidal action, PHBPU; details: 80 g/ha, Table D
Summary of the method: as §2

Cyperus serotinus = assay: Pre-emergence herbicidal action, CYPES; details: dosage 320 g/ha, scored visually after 3 weeks vs untreated controls
Summary of the method: as §1

Viola tricolor [7] = assay: Post-emergence herbicidal action, VIOTR; details: 80 g/ha, Table D
Summary of the method: as §2

Amaranthus retroflexus [8] = assay: Post-emergence herbicidal action, AMARE; details: 80 g/ha, Table D
Summary of the method: as §2

Matricaria inodora = assay: Pre-emergence herbicidal action, MATIN; details: dosage 320 g/ha, scored visually after 3 weeks vs untreated controls
Summary of the method: as §1

ECHCG = assay: Post-emergence herbicidal action, ECHCG; details: 80 g/ha, Table C
Summary of the method: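 Weed and crop plants grown in sandy loam in the greenhouse, treated at the one-leaf stage 2–3 weeks after sowing. Damage scored visually after about 3 weeks vs untreated controls (0% = control, 100% = dead).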

Alopecurus myosuroides [9] = assay: Pre-emergence herbicidal action, ALOMY; details: dosage 320 g/ha, scored visually after 3 weeks vs untreated controls
Summary of the method: as §1

Avena fatua [10] = assay: Pre-emergence herbicidal action, AVEFA; details: dosage 320 g/ha, scored visually after 3 weeks vs untreated controls
Summary of the method: as §1

Setaria viridis [11] = assay: Pre-emergence herbicidal action, SETVI; details: dosage 320 g/ha, scored visually after 3 weeks vs untreated controls
Summary of the method: as §1

Stellaria media [12] = assay: Post-emergence herbicidal action, STEME; details: 80 g/ha, Table D
Summary of the method: as §2

Amaranthus retroflexus [13] = assay: Pre-emergence herbicidal action, AMARE; details: dosage 320 g/ha, scored visually after 3 weeks vs untreated controls
Summary of the method: as §1

Setaria viridis [14] = assay: Post-emergence herbicidal action, SETVI; details: 80 g/ha, Table C
Summary of the method: as §2

Row | SMILES | herbicidal activity ABUTH (Abutilon theophrasti [1]) [%] | herbicidal activity ALOMY (Alopecurus myosuroides [2]) [%] | herbicidal activity AVEFA (Avena fatua [3]) [%] | Herbicidal activity STEME (Stellaria media [4]) [%] | herbicidal activity VIOTR (Viola tricolor [5]) [%] | herbicidal activity ABUTH (Abutilon theophrasti [6]) [%] | Herbicidal activity PHBPU (Pharbitis purpureum) [%] | herbicidal activity CYPES (Cyperus serotinus) [%] | herbicidal activity VIOTR (Viola tricolor [7]) [%] | herbicidal activity AMARE (Amaranthus retroflexus [8]) [%] | herbicidal activity MATIN (Matricaria inodora) [%] | Herbicidal activity ECHCG (ECHCG) [%] | herbicidal activity ALOMY (Alopecurus myosuroides [9]) [%] | herbicidal activity AVEFA (Avena fatua [10]) [%] | herbicidal activity SETVI (Setaria viridis [11]) [%] | Herbicidal activity STEME (Stellaria media [12]) [%] | herbicidal activity AMARE (Amaranthus retroflexus [13]) [%] | herbicidal activity SETVI (Setaria viridis [14]) [%]
1 | CCn1nnnc1NC(=O)c1ccc(C(F)F)c([S+](C)[O-])c1C1CC1 (stereo not drawn) [Example 2-26] | 100 | 90 | 100 | 100 | 100 | 90 | 90 | 90 | 100 | 100 | 100 | 100 | 100 | 100 | 100 | 100 | 100 | 100
2 | CCn1nnnc1NC(=O)c1ccc(C(F)F)c(S(C)(=O)=O)c1C1CC1 [Example 2-27] | 100 | 90 | 100 | 100 | 100 | 100 | 90 | 100 | 100 | 100 | 100 | 100 | 100 | 100 | 100 | 100 | 100 | 100
3 | CCSc1c(C(F)F)ccc(C(=O)Nc2nnnn2CC)c1C1CC1 [Example 2-28] | 100 | 90 | 100 | 100 | 100 | 100 | 100 | 100 | 100 | 100 | 100 | 100 | 100 | 100 | 100 | 100 | 100 | 100
4 | CCn1nnnc1NC(=O)c1ccc(C(F)F)c([S+]([O-])CC)c1C1CC1 (stereo not drawn) [Example 2-29] | 100 | 100 | 90 | 100 | 100 | 100 | 90 | 90 | 100 | 100 | 100 | 100 | 100 | 100 | 100 | 100 | 100 | 100
5 | CCn1nnnc1NC(=O)c1ccc(C(F)F)c(S(=O)(=O)CC)c1C1CC1 [Example 2-30] | 100 | 90 | 90 | 100 | 100 | 100 | 90 | 90 | 100 | 100 | 100 | 100 | 100 | 100 | 100 | 100 | 100 | 100
6 | CCn1nnnc1NC(=O)c1ccc(C(F)F)c(SC)c1F [Example 2-37] | 100 | 80 | 90 | 100 | 100 | 100 | 100 | 80 | 90 | 100 | 100 | 100 | 90 | 100 | 100 | 100 | 100 | 100
7 | CCn1nnnc1NC(=O)c1ccc(C(F)F)c([S+](C)[O-])c1F (stereo not drawn) [Example 2-38] | 100 | 90 | 90 | 100 | 100 | 90 | 90 | 100 | 100 | 100 | 100 | 100 | 100 | 100 | 100 | 100 | 100 | 100
8 | CCn1nnnc1NC(=O)c1ccc(C(F)F)c([S+]([O-])CC)c1F (stereo not drawn) [Example 2-41] | 100 | 80 | 90 | 100 | 100 | 100 | 90 | 90 | 100 | 90 | 100 | 100 | 100 | 100 | 100 | 100 | 100 | 100
9 | CCn1nnnc1NC(=O)c1ccc(C(F)F)c(SC)c1Cl [Example 2-49] | 100 | 100 | 100 | 90 | 100 | 100 | 100 | 90 | 100 | 100 | 100 | 100 | 100 | 100 | 100 | 100 | 100 | 100
10 | CCn1nnnc1NC(=O)c1ccc(C(F)F)c(SC)c1Br [Example 2-61] | 100 | 90 | 90 | 100 | 100 | 100 | 100 | 100 | 100 | 90 | 100 | 90 | 100 | 100 | 100 | 100 | 100 | 90
11 | CCn1nnnc1NC(=O)c1ccc(C(F)F)c([S+](C)[O-])c1Br (stereo not drawn) [Example 2-62] | 100 | 90 | 100 | 100 | 100 | 100 | 100 | 100 | 100 | 100 | 100 | 100 | 100 | 100 | 100 | 100 | 100 | 100
